{"source": "paper PMC6127270", "about": "(Frontiers in Pharmacology, 2018)", "key": {"human DOR": {"target": "T1, human DOR (Homo sapiens, UniProt P41143)", "T1 construct": "host or cells: CHO", "test": "[35S]GTPγS binding, CHO-hDOR membranes", "assay_type": "biochemical", "settings": "for [35S]GTPγS Binding DOR % stim.: relative to DPDPE"}, "[1]": {"system": "mouse vas deferens (MVD) preparation", "design": "method as in Lattanzi et al., 2005", "settings": "values marked c (footnote not given); ref Lattanzi et al., 2005; read-out: Bioassay IC50 MVD; cited from earlier work"}, "CD-1 mice [2]": {"system": "CD-1 mice", "settings": "s.c., hot-plate, values marked c (footnote not given), ref Lattanzi et al., 2005; cited from earlier work"}, "[3]": {"test": "Charcoal meal test (gastrointestinal transit)", "settings": "male, CD-1, mouse, in vivo, sc"}, "CD-1 mice [4]": {"system": "CD-1 mice", "test": "Charcoal meal test (gastrointestinal transit)", "settings": "mice; for Inhibition of gastrointestinal transit at highest tested dose: highest doses morphine 8000, 14-OMO 90, POMO […]"}, "human KOR": {"target": "T2, human KOR (Homo sapiens, UniProt P41145)", "T2 construct": "host or cells: CHO", "test": "biochemical", "assay_type": "biochemical"}, "human MOR": {"target": "T3, human MOR (Homo sapiens, UniProt P35372)", "T3 construct": "host or cells: CHO", "test": "[35S]GTPγS binding, CHO-hMOR membranes", "assay_type": "biochemical", "settings": "for [35S]GTPγS Binding MOR % stim.: relative to DAMGO"}, "[5]": {"system": "guinea-pig ileum (GPI) myenteric plexus-longitudinal muscle preparation", "design": "method as in Lattanzi et al., 2005", "settings": "values marked c (footnote not given); ref Lattanzi et al., 2005; read-out: Bioassay IC50 GPI; cited from earlier work"}, "[6]": {"system": "mouse vas deferens (MVD) preparation", "settings": "for IC50: read-out: Bioassay IC50 MVD, inhibition of electrically evoked twitch"}, "CD-1 mice [7]": {"system": "CD-1 mice", "test": "Hot-plate assay (acute thermal nociception)", "assay_type": "in vivo, mouse"}, "[8]": {"system": "guinea-pig ileum (GPI) myenteric plexus-longitudinal muscle preparation", "test": "tissue or blood", "settings": "Cavia porcellus, read-out: Bioassay IC50 GPI"}, "[9]": {"system": "guinea-pig ileum (GPI) myenteric plexus-longitudinal muscle preparation", "settings": "for IC50: read-out: Bioassay IC50 GPI, inhibition of electrically evoked twitch"}, "DOR": {"target": "T4, DOR (Rattus norvegicus, UniProt P33533)", "T4 construct": "Membranes were prepared from Sprague–Dawley rat brains or guinea-pig brains; from tissue; host or cells: Sprague-Dawley rat brain", "test": "Competition binding, [3H][Ile5,6]deltorphin II, rat brain membranes"}, "MOR": {"target": "T5, MOR (Rattus norvegicus, UniProt P33535)", "T5 construct": "Membranes were prepared from Sprague–Dawley rat brains or guinea-pig brains; from tissue; host or cells: Sprague-Dawley rat brain", "test": "Competition binding, [3H]DAMGO, rat brain membranes"}, "[10]": {"system": "mouse vas deferens (MVD) preparation", "test": "tissue or blood", "settings": "read-out: Bioassay IC50 MVD"}, "KOR": {"target": "T6, KOR (Cavia porcellus, UniProt P41144)", "T6 construct": "Membranes were prepared from Sprague–Dawley rat brains or guinea-pig brains; from tissue; host or cells: guinea-pig brain", "test": "Competition binding, [3H]U69,593, guinea-pig brain membranes"}}, "note": "Read-outs that look alike come from different tables or passages of the source."}
{"smiles": "CO[C@@]12CCC(=O)[C@@H]3Oc4c(O)ccc5c4[C@@]31CCN(C)[C@@H]2C5", "note": "[14-OMO, 14-O-methyloxymorphone, reference compound]", "values": [{"measurement": "EC50", "setting": "human DOR", "value": "43.8 ± 11.7", "unit": "nM"}, {"measurement": "[35S]GTPγS Binding DOR % stim.", "setting": "human DOR", "value": "106 ± 1", "unit": "%"}, {"measurement": "IC50", "setting": "[1]", "value": "30.5 ± 5.5", "unit": "nM"}, {"measurement": "Antinociceptive activity AD50 (95% CI)", "setting": "CD-1 mice [2]", "value": "53 (48–58)^c μg/kg"}, {"measurement": "ED50 at 30 min", "setting": "[3]", "value": 0.037, "unit": "µmol/kg"}, {"measurement": "Inhibition of gastrointestinal transit at highest tested dose", "setting": "CD-1 mice [4]; charcoal test, s.c.", "value": 90, "unit": "%"}, {"measurement": "EC50", "setting": "human KOR", "value": "144 ± 32", "unit": "nM"}, {"measurement": "[35S]GTPγS Binding KOR % stim.", "setting": "human KOR", "value": "65 ± 7", "unit": "%"}, {"measurement": "EC50", "setting": "human MOR", "value": "1.62 ± 0.48", "unit": "nM"}, {"measurement": "[35S]GTPγS Binding MOR % stim.", "setting": "human MOR", "value": "97 ± 6", "unit": "%"}, {"measurement": "IC50", "setting": "[5]", "value": "2 ± 0.3", "unit": "nM"}]}
{"smiles": "CN1CC[C@]23c4c5ccc(O)c4O[C@H]2[C@@H](O)C=C[C@H]3[C@H]1C5", "note": "[Morphine, Morphine hydrocloride, reference compound]", "values": [{"measurement": "Antinociceptive activity AD50 (95% CI)", "setting": "CD-1 mice [2]", "value": "6690 (4468–9348)^c μg/kg"}, {"measurement": "ED50 at 30 min", "setting": "[3]", "value": 3.8, "unit": "µmol/kg"}, {"measurement": "Inhibition of gastrointestinal transit at highest tested dose", "setting": "CD-1 mice [4]; charcoal test, s.c.", "value": "completely abolishing transit"}]}
{"smiles": "CN1CC[C@]23c4c5ccc(O)c4O[C@H]2C(=O)CC[C@@]3(OCCCc2ccccc2)[C@H]1C5", "note": "[POMO, 14-O-phenylpropyloxymorphone]", "values": [{"measurement": "EC50", "setting": "human DOR", "value": "0.28 ± 0.14", "unit": "nM"}, {"measurement": "Agonist efficacy at DOR", "setting": "human DOR; [35S]GTPγS binding", "value": "full efficacy"}, {"measurement": "Fold increase in potency (EC50) than 14-OMO at DOR", "setting": "human DOR; [35S]GTPγS binding", "value": 151, "unit": "fold"}, {"measurement": "[35S]GTPγS Binding DOR % stim.", "setting": "human DOR", "value": "91 ± 8", "unit": "%"}, {"measurement": "Fold more potent than 14-OMO as agonist in MVD", "setting": "[6]", "value": 1000, "unit": "fold"}, {"measurement": "Fold more potent than morphine as agonist in MVD", "setting": "[6]", "value": "> 50,000 fold"}, {"measurement": "Antagonism of antinociception by naloxone", "setting": "CD-1 mice [7]; POMO 2 nmol/kg s.c., 20 min, naloxone 1 mg/kg s.c., -10 min", "value": "significantly antagonized"}, {"measurement": "Antagonism of antinociception by naltrindole", "setting": "CD-1 mice [7]; POMO 2 nmol/kg s.c., 20 min, naltrindole 3 mg/kg s.c., -10 min", "value": "did not antagonize"}, {"measurement": "Antagonism of antinociception by nor-BNI", "setting": "CD-1 mice [7]; POMO 2 nmol/kg s.c., 20 min, nor-BNI 20 mg/kg s.c., -24 h", "value": "did not antagonize"}, {"measurement": "Fold increased antinociceptive potency than 14-OMO", "setting": "CD-1 mice [7]; hot-plate, mice, s.c.", "value": "over 70 fold"}, {"measurement": "Fold increased antinociceptive potency than morphine", "setting": "CD-1 mice [7]; hot-plate, mice, s.c.", "value": "> 9000", "unit": "fold"}, {"measurement": "Time of peak antinociceptive response", "setting": "CD-1 mice [7]; hot-plate, mice, s.c.", "value": 20, "unit": "min"}, {"measurement": "Fold increase in antinociceptive potency than oxymorphone", "setting": "CD-1 mice [7]; hot-plate, mice, s.c., oxymorphone value from Dumitrascuta et al., 2017", "value": "> 1400", "unit": "fold"}, {"measurement": "AD50 hot-plate test", "setting": "CD-1 mice [7]; mice, s.c.", "value": 0.7, "unit": "nmol/kg"}, {"measurement": "Antinociceptive activity AD50 (95% CI)", "setting": "CD-1 mice [7]; mice, s.c., hot-plate, at peak of action", "value": "0.70 (0.63–0.77) μg/kg"}, {"measurement": "IC50", "setting": "[8]", "value": "1.2 ± 0.21", "unit": "nM"}, {"measurement": "Fold more potent than morphine as agonist in GPI", "setting": "[9]", "value": "over 250 fold"}, {"measurement": "ED50 at 30 min", "setting": "[3]", "value": 0.0017, "unit": "µmol/kg"}, {"measurement": "Inhibition of gastrointestinal transit compared with 14-OMO and morphine", "setting": "CD-1 mice [4]; charcoal test", "value": "fourfold less inhibition"}, {"measurement": "Inhibition of gastrointestinal transit at highest tested dose", "setting": "CD-1 mice [4]; charcoal test, s.c.", "value": 50, "unit": "%"}, {"measurement": "Ratio ED50(constipation) vs. AD50(antinociception)", "setting": "CD-1 mice [4]; s.c.", "value": 2.43}, {"measurement": "Agonist efficacy at KOR", "setting": "human KOR", "value": "partial agonism"}, {"measurement": "EC50", "setting": "human KOR", "value": "0.38 ± 0.13", "unit": "nM"}, {"measurement": "Fold increase in potency (EC50) than 14-OMO at KOR", "setting": "human KOR", "value": 411, "unit": "fold"}, {"measurement": "[35S]GTPγS Binding KOR % stim.", "setting": "human KOR", "value": "39 ± 5", "unit": "%"}, {"measurement": "EC50", "setting": "human MOR", "value": "0.082 ± 0.017", "unit": "nM"}, {"measurement": "Agonist efficacy at MOR", "setting": "human MOR; [35S]GTPγS binding", "value": "full efficacy"}, {"measurement": "Fold increase in potency (EC50) than 14-OMO at MOR", "setting": "human MOR; [35S]GTPγS binding", "value": 20, "unit": "fold"}, {"measurement": "[35S]GTPγS Binding MOR % stim.", "setting": "human MOR", "value": "100 ± 8", "unit": "%"}, {"measurement": "Ki", "setting": "DOR", "value": "0.13 ± 0.02", "unit": "nM"}, {"measurement": "Ki", "setting": "MOR", "value": "0.073 ± 0.007", "unit": "nM"}, {"measurement": "Selectivity DOR/MOR", "setting": "MOR; ratio of Ki values", "value": 1.8}, {"measurement": "Selectivity KOR/MOR", "setting": "MOR; ratio of Ki values", "value": 4.1}, {"measurement": "IC50", "setting": "[10]", "value": "0.03 ± 0.0013", "unit": "nM"}, {"measurement": "Ki", "setting": "KOR", "value": "0.3 ± 0.01", "unit": "nM"}]}
{"smiles": "C[C@@H](NC(=O)[C@@H](N)Cc1ccc(O)cc1)C(=O)N[C@@H](Cc1ccccc1)C(=O)NCC(=O)N[C@@H](Cc1ccc(O)cc1)C(=O)N1CCC[C@H]1C(=O)N[C@@H](CO)C(N)=O", "note": "[Dermorphin, reference compound]", "values": [{"measurement": "IC50", "setting": "[6]", "value": "18 ± 0.31", "unit": "nM"}, {"measurement": "IC50", "setting": "[9]", "value": "1.3 ± 0.27", "unit": "nM"}]}
{"smiles": "C[C@@H](NC(=O)[C@@H](N)Cc1ccc(O)cc1)C(=O)NCC(=O)N(C)[C@@H](Cc1ccccc1)C(=O)NCCO", "note": "[DAMGO, [D-Ala^2,N-Me-Phe^4,Gly-ol^5]enkephalin, reference compound]", "values": [{"measurement": "[35S]GTPγS Binding MOR % stim.", "setting": "human MOR", "value": 100, "unit": "%"}]}
{"smiles": "CC(C)[C@H](NC(=O)[C@H](CC(=O)O)NC(=O)[C@H](Cc1ccccc1)NC(=O)[C@@H](C)NC(=O)[C@@H](N)Cc1ccc(O)cc1)C(=O)N[C@H](C(=O)NCC(N)=O)C(C)C", "note": "[Deltorphin I, deltorphin I, reference compound]", "values": [{"measurement": "IC50", "setting": "[6]", "value": "0.19 ± 0.03", "unit": "nM"}, {"measurement": "IC50", "setting": "[9]", "value": "1240 ± 132", "unit": "nM"}]}
